One data set in a line: Cytotoxicity assay. The conditions noted are these: human, HEK293T cells.
A short description of another data set: in vitro. The following applies: human.

This passage reports CC50 results from publication PMC5643073 (ACS combinatorial science, 2017).

SMILES strings stand for the structures.

The compound `Cc1cc(SCc2sc(-c3ccc(C(F)(F)F)c(F)c3)nc2C)ccc1OCC(=O)O` [Compound 31] returned a CC50 at 18 h in “Cytotoxicity assay” of more than 50 µM.
For `Cc1cc(SCc2sc(-c3ccc(C(F)(F)F)cc3)nc2C)ccc1OCC(=O)O` [Compound 13], in the data set “in vitro”, the CC50 at 18 h is more than 33 µM.
